Assay results as given in patent US20250332167A1, “PHARMACEUTICAL USE OF CDK 4/6 INHIBITOR” (priority 2021, published 2025).
Where “and” joins values, the source holds several entries; their conditions need not be identical. Equal values may be shown once.

Columns and labels:
[1] = system: U118MG cells; assay: Proliferation inhibition of human glioblastoma cells U118MG (DAPI cell count, 72 h); assay type: cell-based; settings: U-118-MG, 72 h treatment
Procedure: Human glioblastoma cell U118MG was purchased from NANJING COBIOER BIOSCIENCES CO., LTD. […] The cell detection equipment used was the In Cell Analyzer 2200 (GE Healthcare).
(§1) With 60 μM as the initial concentration, ten points were obtained by serial five-fold dilution.
Medium for U118 MG is the MEM (low glucose) medium supplemented with 10% FBS, 1% penicillin/streptomycin, 1% sodium pyruvate, and 1% MEM NEAA. U118 MG cells were seeded at a density of 4000 cells/100 μL/well in a 96-well black clear-bottom plate and incubated at 37° C. overnight. The plate was then taken, and 20 μL of the prepared diluted samples was added to the wells. The cells were treated at 37° C. for 72 hours. After 72 hours, the plate was taken, and a neutral formaldehyde fixation solution (formaldehyde:PBS=1:9) was added at 50 μL/well. The cells were fixed at room temperature for 10-30 minutes. The wells were washed twice with 1× PBS (100 μL/well), and then permeabilized with 0.2% Triton™-X100 for 5-10 minutes (100 μL/well). […] The plate was scanned by using an In Cell Analyzer, and the number of cells in each well was analyzed. The inhibition rate of each compound at various concentration points was calculated by using the formula provided. The IC50 values were determined by curve fitting using GraphPad Prism 6.0 software.

[2] = system: NCI-H441; assay: Proliferation inhibition, non-small cell lung cancer cell line NCI-H441; assay type: cell-based; settings: Homo sapiens, NCI-H441, 72 h
Procedure: (§2) Sixteen non-small cell lung cancer cell lines, including NCI-H1792, NCI-H1703, NCI-H441, SNU-761, NCI-H1975, NCI-H358, NCI-H1838, NCI-H1915, A549, SK-MES-1, NCI-H292, PC-9, NCI-H460, NCI-H23, NCI-H1581, and HLF, were used for the proliferation inhibition assay of the present invention compound. […] The cell detection equipment used was In Cell Analyzer 2200 (GE Healthcare).
as §1
(§3) Each kind of cell in logarithmic growth phase was inoculated with 4000 cells/100 μl/well into a black transparent bottom 96-well plate and cultured overnight at 37° C. The next day, the plate was taken out, and 20 μL of the prepared sample dilutions was added to each well. The plate was then subjected to treatment at 37° C. for 72 hours. After the treatment period of 72 hours, the plate was taken out and 50 μL of neutral formaldehyde fixative (formaldehyde: PBS=1:9, 50 μl/well) was added to each well. The plate was then fixed at room temperature for 10-30 minutes. Subsequently, the wells were washed twice with 1× PBS (100 μl/well) and treated with 0.2% Triton™-X100 for 5-10 minutes to permeabilize the cells. […] The inhibitory rates of each compound at different concentration points were calculated by using the following formula, and IC50 values were obtained through curve fitting using GraphPad Prism 6.0 software.

[3] = system: NCI-H1838; assay: Proliferation inhibition, non-small cell lung cancer cell line NCI-H1838; assay type: cell-based; settings: Homo sapiens, NCI-H1838, 72 h
Procedure: as §2, §1, §3

[4] = system: NCI-H1915; assay: Proliferation inhibition, non-small cell lung cancer cell line NCI-H1915; assay type: cell-based; settings: Homo sapiens, NCI-H1915, 72 h
Procedure: as §2, §1, §3

[5] = system: A549; assay: Proliferation inhibition, non-small cell lung cancer cell line A549; assay type: cell-based; settings: Homo sapiens, A549, 72 h
Procedure: as §2, §1, §3

[6] = system: NCI-H292; assay: Proliferation inhibition, non-small cell lung cancer cell line NCI-H292; assay type: cell-based; settings: Homo sapiens, NCI-H292, 72 h
Procedure: as §2, §1, §3

[7] = system: NCI-H23; assay: Proliferation inhibition, non-small cell lung cancer cell line NCI-H23; assay type: cell-based; settings: Homo sapiens, NCI-H23, 72 h
Procedure: as §2, §1, §3

[8] = system: HLF; assay: Proliferation inhibition, non-small cell lung cancer cell line HLF; assay type: cell-based; settings: Homo sapiens, 72 h
Procedure: as §2, §1, §3

[9] = system: NCI-H1975 xenograft; assay: Human non-small cell lung cancer NCI-H1975 xenograft mouse model; assay type: in vivo, Balb/c nude mice; settings: for T/C / TGI / Tumor relative volume (x ± S) / Tumor volume (x ± S): 16 days after administration; for Body weight change: Day 20 of treatment
Text: The formula for calculating tumor volume was: Tumor Volume (mm^3)=½×(a×b^2) (where “a” represents the long diameter and “b” represents the short diameter).
The relative tumor growth rate (T/C) is the percentage value of the relative tumor volume or weight between the treatment group and the control group at a certain time point. The calculation formula is as follows: • T/C(%)=TRTV/CRTV×100% (TRTV: Average RTV of the treatment group; CRTV: Average RTV of the Vehicle group; RTV=Vt/V0, where V0 is the tumor volume of the animal at the time of grouping and Vt is the tumor volume of the animal after treatment).
(T and C are the relative tumor volume (RTV) or weight (TW) of the treatment group and control group at a specific time point, respectively).
NCI-H1975 cells were cultured in RPMI1640 medium containing 10% fetal bovine serum. Log-phase NCI-H1975 cells were collected, suspended in PBS to an appropriate concentration, and used for subcutaneous tumor implantation in Balb/c nude mice. Each female mouse was implanted with 0.1 ml of NCI-H1975 cells subcutaneously. When the average tumor volume reached 171 mm^3, the mice were randomly divided into groups based on tumor size.
The positive control drugs were Palbociclib and Abemaciclib.
Each group consisted of 8 mice, and oral gavage administration was performed once daily for a total of 21 days. Tumor volume and body weight changes were observed regularly, and efficacy evaluation was conducted based on relative tumor proliferation rate (T/C) and relative tumor growth inhibition rate (TGI). The calculation methods for tumor volume, T/C, and TGI are described in Example 3.

[10] = 10 mg/kg oral gavage once daily
[11] = 25 mg/kg oral gavage once daily
[12] = 50 mg/kg oral gavage once daily

## CC1=Nc2c(F)cc(-c3nc(Nc4ccc(C5CCN(C)CC5)cn4)ncc3F)cc2C12CCCC2.O=C(O)/C=C/C(=O)O [Compound A, Fumarate salt of 5-fluoro-4-(7′-fluoro-2′-methylspiro[cyclopentane-1,3′-indol]-5′-yl)-N-(5-(1-methylpiperidin-4-yl)pyridin-2-yl)pyrimidine-2-amine]
[1]
  IC50: 23.2 ± 5.2 nM
[2]
  IC50: 7 nM
[3]
  IC50: 47.9 nM
[4]
  IC50: 53 nM
[5]
  IC50: 66 nM
[6]
  IC50: 73 nM
[7]
  IC50: 243 nM
[8]
  IC50: 2010 nM
[9]; 5 mg/kg oral gavage once daily
  T/C: 85%
  TGI: 15%
  Tumor relative volume (x ± S): 9.8 ± 0.6
  Tumor volume (x ± S): 1889 mm^3 and 1889 ± 60 mm^3
[9]; [10]
  T/C: 72%
  TGI: 28%
  Tumor relative volume (x ± S): 8.4 ± 1.0
  Tumor volume (x ± S): 1647 mm^3 and 1647 ± 243 mm^3
[9]; [11]
  T/C: 50%
  TGI: 50%
  Tumor relative volume (x ± S): 5.8 ± 0.3
  Tumor volume (x ± S): 1141 mm^3 and 1141 ± 112 mm^3
  Body weight change: slight decrease in body weight
[9]; [12]
  T/C: 31%
  TGI: 69%
  Tumor relative volume (x ± S): 3.6 ± 0.2
  Tumor volume (x ± S): 709 mm^3 and 709 ± 47 mm^3
  Body weight change: slight decrease in body weight
